# Experimental data: patent publication US8557816B2, “Aurora kinase modulators and method of use” (Amgen Inc., priority 2007, dated 2013)
# Tests used:
# AuroraA-TPX2 = target: T1, AuroraA-TPX2 (Homo sapiens, UniProt O14965); assay: AuroraA-TPX2 Homogeneous Time Resolved Fluorescent (HTRF) kinase assay; type: biochemical; settings: average; read-out: AurA_IC50_IP (uM Avg)
# T1 construct: 20 μL of AuroraA-TPX2 KD GST for a final volume of about 41 μL; GST
# T1 sequence (O14965 133-383 limits assumed): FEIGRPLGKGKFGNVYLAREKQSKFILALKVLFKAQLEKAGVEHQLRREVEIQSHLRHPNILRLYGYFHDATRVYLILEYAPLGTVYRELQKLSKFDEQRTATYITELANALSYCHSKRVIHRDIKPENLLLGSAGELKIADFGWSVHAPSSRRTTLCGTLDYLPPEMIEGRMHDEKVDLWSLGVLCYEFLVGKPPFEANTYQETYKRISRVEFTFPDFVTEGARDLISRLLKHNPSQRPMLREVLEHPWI
# T1 sequence (Q9ULW0 1-43 partner limits assumed): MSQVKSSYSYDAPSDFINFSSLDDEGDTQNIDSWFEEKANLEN
# Method in brief: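 HTRF read-out (Eu 615 nm to APC 655 nm) of phosphorylated biotin-PLK, detected with 0.02 nM europium anti-phosphoPLK antibody and 0.0005 mg/mL SA-APC after overnight equilibration.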
# AuroraB = target: T2, AuroraB (Homo sapiens, UniProt Q96GD4); assay: AuroraB Homogeneous Time Resolved Fluorescent (HTRF) kinase assay; type: biochemical; settings: average; read-out: AurB_IC50_IP (uM Avg)
# T2 construct: 20 μL of AuroraB FL H is for a final volume of 41 μL; His
# T2 sequence (Q96GD4 whole entry): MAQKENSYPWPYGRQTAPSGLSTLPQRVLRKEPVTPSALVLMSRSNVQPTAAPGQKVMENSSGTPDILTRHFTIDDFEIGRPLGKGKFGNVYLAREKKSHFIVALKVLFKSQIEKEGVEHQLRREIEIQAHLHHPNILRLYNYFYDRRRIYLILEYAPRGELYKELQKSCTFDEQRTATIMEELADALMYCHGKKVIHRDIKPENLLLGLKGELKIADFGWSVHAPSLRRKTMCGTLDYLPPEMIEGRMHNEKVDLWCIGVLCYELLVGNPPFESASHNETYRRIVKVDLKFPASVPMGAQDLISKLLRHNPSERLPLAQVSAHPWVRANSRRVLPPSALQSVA
# Method in brief: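 Read-out is time-resolved FRET between europium anti-phospho-H3 antibody and streptavidin-APC, added in EDTA buffer to stop the reaction and equilibrated about 60 min (ex 320, em 615 and 655 nm). Preceding reaction: ~90 min, full-length enzyme, ATP, 0.1 μM biotin-Histone H3 substrate, Mg/Mn HEPES buffer pH 7.5.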
# HCT116 xenografts = assay: HCT116 xenograft model (human colon carcinoma), tumor growth inhibition; type: in vivo; settings: 5.0 mg/kg, 2-day dosing scheduling QD, p.o., athymic nude mice
# Description: Compounds of the present invention were evaluated in HCT116 xenografts, a human colon carcinoma model. […] These cells were grown as subcutaneous xenografts in female HSD (Harlan Sprague Dawley) athymic nude mice. Mice were implanted subcutaneously with 2×10^6 cells in matrigel on day 0. Treatment was initiated on day 10 with compounds of the invention at the indicated dosage p.o for 2 consecutive-days per week (intermittent schedule, such as 2 days on-5 days off) or 7-days (continuous schedule) per week, for a selected number of weeks. For example, in one study, animals were dosed with selected compound samples BID on an intermittent dosing paradigm of two days on and then 5 days off per week, for four weeks (four dosing cycles) at 15, 7.5, and 3.75 mg/kg. Tumor growth inhibition and body weights were measured throughout the study and compared to the vehicle control group. All groups were provided nutritional supplements on a daily basis throughout the study to maintain body weight. Terminal neutrophil counts were taken at the end of this study. Measures were made by ANOVA followed by Scheffe post hoc test using StatView software v5.0.1.
# 10 Flasks containing a total of 7.68×10^8 HCT116 tumor cells were harvested for tumor cell implantation. HCT 116 cells were re-suspended to a cell concentration of about 2×10^7 cells/ml in serum-free McCoys 5A media+50% matrigel. Cell viability was measured to be about 99.3%.
# Female Athymic Nude mice approximately 14 weeks of age (Harlan Sprague Dawley) were used for the experiment. Mice were housed five per filter-capped cage in sterile housing in an environmentally controlled room (temperature 23±2° C., relative humidity 50±20%) on a 12-hr light/dark cycle. […] On Day 9, tumor-bearing mice were measured and randomized into five groups (n=10). […] During the dosing period, mouse tumor volumes were measured with a digital caliper and weighed twice per week. Tumor volumes were calculated as follows: Tumor Volume (mm^3) [(W^2×L)/2] where width (W) is defined as the smaller of the 2 measurements and length (L) is defined as the larger of the 2 measurements.
smiles,measurement,setting,value
"COc1cnc2c(Sc3ccc(Nc4nnc(-c5ccccc5)c5ccccc45)cc3)ccnc2c1 [Example 207, N-(4-((7-(methyloxy)-1,5-naphthyridin-4-yl)thio)phenyl)-4-phenyl-1-phthalazinamine]",IC50,AuroraA-TPX2,0.06 µM
same,IC50,AuroraB,0.009 µM
same,inhibition of tumor growth,HCT116 xenografts,~67%
